Assay results published in patent US8895744B2, “Alfa-carboline inhibitors of NPM-ALK, RET, and Bcr-Abl” (Universita' Degli Studi di Milano-Bicocca, priority 2008, dated 2014).
Where two headings read alike, the source gives them in different places.

Experiments:
Recombinant ALK kinase = molecular target: T1, Recombinant ALK kinase (Homo sapiens, UniProt Q9UM73); experiment: ALK kinase inhibitory activity, ELISA-based in vitro kinase assay; assay type: biochemical
T1 construct: made in house; host or cells: Sf9 insect cells (baculovirus)
In short: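 Sf9-expressed, purified recombinant ALK phosphorylated a plate-coated peptide substrate with 0.3 mM ATP, Mn2+/Mg2+, pH 7.5, 15 min at 30° C, after 10 min inhibitor preincubation. Phosphotyrosine was detected by anti-pTyr ELISA (TMB, A450); IC50 in μM is the concentration giving 50% inhibition relative to control.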

[1] = test system: NPM/ALK positive SUDHL-1 cells; experiment: Tritiated thymidine uptake cell proliferation assay, SUDHL-1; assay type: cell-based; conditions: 3[H]-thymidine uptake, 72 h
Procedure: Inhibition of the proliferation of NPM/ALK positive cells
(§1) Method: Tritiated Thymidine Uptake Cell Proliferation Assay
(§2) The following procedure was used with parent untransformed BaF3 cells, BaF3 cells transformed with the oncogenic fusion protein NPM/ALK, NPM/ALK positive SUDHL-1 cells, ALK-negative U937 cells, NPM/ALK positive KARPAS-299 cells. The parent untransformed BaF3 cells and Alk-negative U937 cells are used as controls. Cells were seeded in U-bottomed 96-well plates at 10 000 cells/well in a volume of 100 μL in supplemented medium. In the case of the parent untransformed BaF3 cells, the medium was supplemented with IL-3. Serial dilutions of inhibitors were added to the appropriate wells and volumes adjusted to 200 μL. Controls were treated with the equivalent volume of vehicle, DMSO, alone. Plates were incubated at 37° C. for 72 h. ^3[H]-thymidine (1 μCi/well) was added for the last 16 h of incubation. Cells were harvested on to paper filters and ^3[H]-thymidine incorporation was measured using a β scintillation counter (1430 MicroBeta, Wallac, Turku, Finland). The 50% inhibitory concentration (IC50) was defined as the concentration of inhibitor, expressed in micromolar, that gave a 50% decrease in ^3[H]-thymidine uptake compared with controls.

[2] = molecular target: T2, BaF3 cells transformed with the oncogenic fusion protein NPM/ALK (Homo sapiens, UniProt Q9UM73); experiment: Tritiated thymidine uptake cell proliferation assay, BaF3 NPM/ALK; assay type: cell-based; conditions: 3[H]-thymidine uptake, 72 h; read-out: BaF NPM/ALK IC50
T2 construct: fused on or other part: P06748 (Nucleophosmin)
In short: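 Cells were seeded at 10 000/well with serial inhibitor dilutions or DMSO vehicle and incubated 72 h at 37 °C, with ^3[H]-thymidine (1 μCi/well) added for the final 16 h. Incorporation was read by β scintillation counting. IC50 (μM) is the concentration giving a 50% decrease in uptake versus controls.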

[3] = test system: parent untransformed BaF3 cells; experiment: Tritiated thymidine uptake cell proliferation assay, parental BaF3 (control); assay type: cell-based; conditions: Mus musculus, 3[H]-thymidine uptake, 72 h, medium with IL-3, read-out: BaF parental IC50
In short: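 Control lines were parental BaF3 in IL-3-supplemented medium and ALK-, Abl- or RET-negative U937, seeded at 10 000 cells/well with serial inhibitor dilutions for 72 h at 37 °C. ³H-thymidine (1 μCi/well) was added for the final 16 h; IC50 (μM) is the concentration halving uptake versus DMSO.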

[4] = molecular target: T3, Recombinant Abl T315I protein (Homo sapiens, UniProt P00519, T315I); experiment: Abl T315I mutant kinase inhibitory activity, ELISA-based in vitro kinase assay; assay type: biochemical; conditions: purified Abl T315I, 0.3 mM ATP
T3 construct: made in house; host or cells: Sf9 cells (baculovirus)
In short: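 His-tagged human Abl T315I from Sf9 cells, preincubated 10 min at room temperature with inhibitor, then reacted on peptide-coated plates with 0.3 mM ATP, 1 mM MnCl2, 5 mM MgCl2 in 50 mM Tris pH 7.5. Phosphotyrosine detected by anti-pTyr/HRP ELISA at 450 nm; IC50 as 50% inhibition vs control.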

Recombinant Ret protein = molecular target: T4, Recombinant Ret protein (Homo sapiens, UniProt P07949); experiment: RET kinase inhibitory activity, ELISA-based in vitro kinase assay; assay type: biochemical; conditions: purified Ret, 0.3 mM ATP
T4 construct: made in house; host or cells: Sf9 cells (baculovirus)
Procedure: Recombinant ALK kinase was expressed in Sf9 insect cells using the pBlueBacHis2C baculovirus vector system and purified using an anion exchange Fast Flow Q-sepharose column (Amersham-Pharmacia Biotech) followed by HiTrap™-nickel affinity column (Amersham-Pharmacia Biotech). Purified ALK protein was used to screen inhibitors in the ELISA-based kinase assay. A Nunc Immuno 96 well plate was incubated overnight at 37° C. with coating solution (125 μL/well) containing ALK peptide substrate ([…]) (SEQ ID NO: 1) at various concentrations in PBS. Wells were then washed with 200 μL of wash buffer (PBS-Tween 0.05%) and left to dry for at least 2 h at 37° C. The kinase reaction was performed in the presence of 50 mM Tris pH 7.5, 5 mM MnCl2, 5 mM MgCl2, 0.3 mM ATP and purified rALK in a total volume of 100 μL/well at 30° C. for 15 min. For inhibitor testing the reaction mix was preincubated with the inhibitor or solvent control for 10 min at room temperature before transferring to the ELISA plate. After the reaction wells were washed 5 times with 200 μL of wash buffer. Phosphorylated peptide was detected using 100 μL/well of a mouse monoclonal anti-phosphotyrosine antibody (clone 4G10 Upstate Biotech Ltd) diluted 1:2000 in PBS+4% BSA. After 30 min incubation at room temperature the antibody was removed and wells were washed as described above. 100 μL of a secondary antibody (anti-mouse IgG, Horseradish Peroxidase linked whole antibody, Amersham Pharmacia Biotech) diluted 1:1000 in PBS+4% BSA was added to each well and the plate was incubated again for 30 min at room temperature before washing as above. The plate was developed using 100 μL/well TMB Substrate Solution (Endogen) and the reaction was stopped by adding an equiv.ual volume of H2SO4 0.36 M. Finally, the absorbance was read at 450 nm using an Ultrospec® 300 spectrophotometer (Amersham-Pharmacia Biotech). The concentration of the test solution showing 50% inhibition as compared with the control was expressed as IC50 (μM).
38. RET Kinase Inhibitory Activity
Method: ELISA-Based In Vitro Kinase Assay
Recombinant Ret protein was expressed in Sf9 cells using the pBlueBacHis2C baculovirus expression vector. Ret was purified using an anion exchange Fast Flow Q-sepharose column (Amersham-Pharmacia Biotech) followed by HiTrap™-nickel affinity column (Amersham-Pharmacia Biotech). Purified Ret was used in the ELISA-based kinase assay to screen inhibitors as described above. The kinase reaction was performed in the presence of 50 mM Tris pH 7.5, 1 mM MnCl2, 5 mM MgCl2, 0.3 mM ATP, peptide substrate ([…]) (SEQ ID NO: 1) and purified Ret. The concentration of the test solution showing 50% inhibition as compared with the control was expressed as IC50 (μM).

[5] = molecular target: BaF3 cells transformed with the oncogenic fusion protein bcr-abl (Homo sapiens, UniProt P00519); experiment: Tritiated thymidine uptake cell proliferation assay, BaF3 BCR/ABL; assay type: cell-based; conditions: 3[H]-thymidine uptake, 72 h; read-out: BaF BCR/ABL IC50
Procedure: Inhibition of the Proliferation of Bcr/Abl Positive Cells
as §1
as §2, with “protein bcr-abl, Abl-negative” for “protein NPM/ALK, NPM/ALK positive SUDHL-1 cells, ALK-negative”, “cells, or Bcr-abl” for “cells, NPM/ALK”, “positive LAMA-84” for “positive KARPAS-299”, “and Abl-negative” for “and Alk-negative”, “in ^3H-thymidine” for “in ^3[H]-thymidine”

ALK-negative U937 cells = experiment: Tritiated thymidine uptake cell proliferation assay, U937 (control); assay type: cell-based; conditions: Homo sapiens, U-937; 3[H]-thymidine uptake, 72 h
Procedure: as §1
as §2, with “with controls. […]” for “with controls.”
as §2, with “RET-PTC2, or RET-negative 11937” for “NPM/ALK, NPM/ALK positive SUDHL-1 cells, ALK-negative U937 cells, NPM/ALK positive KARPAS-299”, “RET-negative” for “Alk-negative”

[6] = purified rALK, 0.3 mM ATP, read-out: ALK IC50

T1 sequence (Q9UM73 19-1620): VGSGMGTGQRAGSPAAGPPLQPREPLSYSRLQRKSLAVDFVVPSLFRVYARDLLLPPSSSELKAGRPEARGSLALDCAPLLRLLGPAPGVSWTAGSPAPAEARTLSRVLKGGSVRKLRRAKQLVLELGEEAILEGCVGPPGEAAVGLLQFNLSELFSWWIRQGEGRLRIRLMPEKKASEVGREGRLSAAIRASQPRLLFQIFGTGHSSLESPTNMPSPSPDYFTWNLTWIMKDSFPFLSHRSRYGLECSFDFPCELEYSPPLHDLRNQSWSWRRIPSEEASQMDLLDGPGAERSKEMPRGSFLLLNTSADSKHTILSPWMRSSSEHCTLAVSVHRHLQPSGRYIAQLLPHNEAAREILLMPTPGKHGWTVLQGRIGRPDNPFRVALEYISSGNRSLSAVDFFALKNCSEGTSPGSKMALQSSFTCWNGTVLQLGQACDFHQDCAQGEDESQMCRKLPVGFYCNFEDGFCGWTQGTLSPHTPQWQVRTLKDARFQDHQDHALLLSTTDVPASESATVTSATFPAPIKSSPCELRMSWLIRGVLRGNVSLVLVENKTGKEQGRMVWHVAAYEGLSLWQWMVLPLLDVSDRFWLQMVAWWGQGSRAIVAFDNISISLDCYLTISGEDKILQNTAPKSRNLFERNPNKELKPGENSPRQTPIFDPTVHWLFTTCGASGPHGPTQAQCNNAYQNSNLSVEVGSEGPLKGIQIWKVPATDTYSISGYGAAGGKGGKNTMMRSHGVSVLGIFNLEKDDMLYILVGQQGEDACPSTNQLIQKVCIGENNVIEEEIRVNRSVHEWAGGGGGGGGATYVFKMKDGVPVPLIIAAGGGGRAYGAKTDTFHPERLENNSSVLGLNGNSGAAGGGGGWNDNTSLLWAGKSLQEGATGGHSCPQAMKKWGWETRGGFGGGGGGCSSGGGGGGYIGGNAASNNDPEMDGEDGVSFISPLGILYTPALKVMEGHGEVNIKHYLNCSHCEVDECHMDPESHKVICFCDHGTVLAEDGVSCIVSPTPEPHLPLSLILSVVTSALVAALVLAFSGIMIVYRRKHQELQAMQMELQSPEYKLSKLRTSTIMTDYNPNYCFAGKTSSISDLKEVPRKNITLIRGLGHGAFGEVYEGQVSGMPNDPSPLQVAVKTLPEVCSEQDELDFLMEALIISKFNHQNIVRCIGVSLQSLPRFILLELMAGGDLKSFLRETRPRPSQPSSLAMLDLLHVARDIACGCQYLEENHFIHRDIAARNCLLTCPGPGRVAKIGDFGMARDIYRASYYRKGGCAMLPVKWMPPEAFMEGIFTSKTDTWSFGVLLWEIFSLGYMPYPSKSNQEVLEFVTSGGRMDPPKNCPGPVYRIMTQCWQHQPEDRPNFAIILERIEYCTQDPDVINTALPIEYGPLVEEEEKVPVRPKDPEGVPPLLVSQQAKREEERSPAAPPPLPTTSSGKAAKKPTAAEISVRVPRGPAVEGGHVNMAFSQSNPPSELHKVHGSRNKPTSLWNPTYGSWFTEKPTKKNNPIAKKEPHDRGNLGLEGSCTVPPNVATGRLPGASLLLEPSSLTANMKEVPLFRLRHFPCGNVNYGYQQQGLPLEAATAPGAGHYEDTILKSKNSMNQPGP
T2 sequence (Q9UM73 whole entry, change not shown, the tested form may be a part): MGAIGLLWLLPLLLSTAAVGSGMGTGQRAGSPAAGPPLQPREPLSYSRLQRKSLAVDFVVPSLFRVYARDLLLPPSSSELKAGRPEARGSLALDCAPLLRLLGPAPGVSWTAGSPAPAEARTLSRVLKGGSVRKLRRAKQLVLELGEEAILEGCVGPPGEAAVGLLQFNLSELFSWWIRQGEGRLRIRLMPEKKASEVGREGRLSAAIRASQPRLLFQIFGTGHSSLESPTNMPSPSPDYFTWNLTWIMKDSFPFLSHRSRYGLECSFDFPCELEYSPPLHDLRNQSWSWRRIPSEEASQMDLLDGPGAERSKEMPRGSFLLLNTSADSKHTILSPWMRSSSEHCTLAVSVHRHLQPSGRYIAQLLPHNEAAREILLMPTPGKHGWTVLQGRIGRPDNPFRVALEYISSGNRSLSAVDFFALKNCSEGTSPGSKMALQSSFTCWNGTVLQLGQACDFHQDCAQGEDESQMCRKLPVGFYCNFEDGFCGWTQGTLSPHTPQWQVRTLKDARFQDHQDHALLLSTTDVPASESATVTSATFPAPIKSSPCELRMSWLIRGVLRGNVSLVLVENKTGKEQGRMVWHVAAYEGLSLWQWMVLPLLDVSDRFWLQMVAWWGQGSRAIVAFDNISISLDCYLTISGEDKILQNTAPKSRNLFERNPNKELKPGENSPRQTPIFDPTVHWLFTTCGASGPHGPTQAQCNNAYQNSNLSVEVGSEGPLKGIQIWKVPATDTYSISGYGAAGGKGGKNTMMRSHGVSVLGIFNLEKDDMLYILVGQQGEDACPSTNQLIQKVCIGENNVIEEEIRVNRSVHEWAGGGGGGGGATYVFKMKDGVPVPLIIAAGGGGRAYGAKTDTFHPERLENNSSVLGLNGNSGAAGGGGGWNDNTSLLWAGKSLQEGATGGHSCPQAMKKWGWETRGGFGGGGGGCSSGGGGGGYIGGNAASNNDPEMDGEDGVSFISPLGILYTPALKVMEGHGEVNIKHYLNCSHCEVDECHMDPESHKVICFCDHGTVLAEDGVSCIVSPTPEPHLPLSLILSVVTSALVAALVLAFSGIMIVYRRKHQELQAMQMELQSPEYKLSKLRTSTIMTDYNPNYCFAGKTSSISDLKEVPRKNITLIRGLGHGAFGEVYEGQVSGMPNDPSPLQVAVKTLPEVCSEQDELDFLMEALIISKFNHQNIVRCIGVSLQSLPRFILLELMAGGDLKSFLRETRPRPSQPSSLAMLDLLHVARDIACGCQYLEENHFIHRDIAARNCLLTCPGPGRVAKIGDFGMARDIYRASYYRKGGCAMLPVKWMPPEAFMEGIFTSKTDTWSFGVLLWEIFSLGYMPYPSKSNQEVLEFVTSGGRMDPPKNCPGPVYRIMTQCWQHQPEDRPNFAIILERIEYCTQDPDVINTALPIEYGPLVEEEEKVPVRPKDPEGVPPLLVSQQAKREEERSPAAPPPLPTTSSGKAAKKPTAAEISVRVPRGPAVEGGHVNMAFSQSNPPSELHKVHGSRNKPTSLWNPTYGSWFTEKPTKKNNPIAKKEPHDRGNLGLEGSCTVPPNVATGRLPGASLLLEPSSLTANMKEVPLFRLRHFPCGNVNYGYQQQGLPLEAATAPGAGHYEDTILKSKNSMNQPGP
T4 sequence (P07949 29-1114): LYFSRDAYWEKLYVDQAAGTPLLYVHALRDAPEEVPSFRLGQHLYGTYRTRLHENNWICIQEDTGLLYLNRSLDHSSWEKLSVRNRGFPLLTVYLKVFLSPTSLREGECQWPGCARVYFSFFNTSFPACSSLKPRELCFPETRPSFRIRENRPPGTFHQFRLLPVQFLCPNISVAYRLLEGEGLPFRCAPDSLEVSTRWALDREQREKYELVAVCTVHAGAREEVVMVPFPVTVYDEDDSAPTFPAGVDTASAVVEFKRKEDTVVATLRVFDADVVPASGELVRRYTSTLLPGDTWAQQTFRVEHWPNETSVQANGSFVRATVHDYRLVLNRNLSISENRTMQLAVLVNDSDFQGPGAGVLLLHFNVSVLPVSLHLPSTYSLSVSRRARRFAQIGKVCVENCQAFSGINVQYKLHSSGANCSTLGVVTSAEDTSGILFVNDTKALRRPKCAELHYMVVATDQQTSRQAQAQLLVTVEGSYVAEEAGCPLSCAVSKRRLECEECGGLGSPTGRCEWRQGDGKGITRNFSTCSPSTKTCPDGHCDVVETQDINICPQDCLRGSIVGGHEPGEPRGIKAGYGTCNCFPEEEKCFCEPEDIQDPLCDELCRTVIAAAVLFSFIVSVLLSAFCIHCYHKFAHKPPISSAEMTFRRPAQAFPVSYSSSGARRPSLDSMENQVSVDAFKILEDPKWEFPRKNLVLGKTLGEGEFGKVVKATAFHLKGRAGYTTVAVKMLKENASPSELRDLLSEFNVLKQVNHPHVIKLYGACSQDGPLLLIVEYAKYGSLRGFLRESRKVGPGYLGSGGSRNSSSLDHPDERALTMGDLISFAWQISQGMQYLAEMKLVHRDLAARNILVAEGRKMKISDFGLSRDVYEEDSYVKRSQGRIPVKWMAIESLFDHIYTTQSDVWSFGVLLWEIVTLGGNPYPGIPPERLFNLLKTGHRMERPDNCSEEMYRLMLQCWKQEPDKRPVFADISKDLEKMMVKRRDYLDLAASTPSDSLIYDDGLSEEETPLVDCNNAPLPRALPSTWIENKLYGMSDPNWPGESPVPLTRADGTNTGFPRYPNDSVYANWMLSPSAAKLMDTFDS

## CN(C)CCSCC(=O)c1ccc2[nH]c3ncccc3c2c1 [R263]
Recombinant ALK kinase; [6]
  IC50: > 100 µM
[1]
  IC50: 13 µM
[2]
  GI50: > 25 µM
[3]
  IC50: > 25 µM
[4]
  IC50: > 100 µM
Recombinant Ret protein
  IC50: > 100 µM
[5]
  GI50: > 25 µM

## O=C(NCCc1ccc2[nH]c3ncc(Cl)cc3c2c1)c1ccccc1 [R265, N-(2-(3-chloro-9H-pyrido[2,3-b]indol-6-yl)ethyl)benzamide]
Recombinant ALK kinase; [6]
  IC50: 40 ± 1.9 µM
[1]
  IC50: > 25 µM
[2]
  GI50: > 25 µM
[3]
  IC50: > 25 µM
[4]
  IC50: 54 ± 43 µM
Recombinant Ret protein
  IC50: 26 ± 4.7 µM
[5]
  GI50: > 25 µM

## COc1ccc(-c2ccc3[nH]c4ncccc4c3c2)cc1 [R268]
[1]
  IC50: 0.6 µM
[2]
  GI50: > 25 µM
[3]
  IC50: > 25 µM
[4]
  IC50: 3.6 ± 0.19 µM
Recombinant Ret protein
  IC50: 3.3 ± 1.5 µM
[5]
  GI50: > 25 µM

## COc1ccc(-c2ccc3[nH]c4ncc(/C=C/c5ccccc5)cc4c3c2)cc1 [R315, 6-(4-methoxyphenyl)-3-(2′-phenylethenyl)-9H-pyrido[2,3-b]indole]
Recombinant ALK kinase; [6]
  IC50: 1.1 ± 0.3 µM
[1]
  IC50: 2 µM
[2]
  GI50: 3.9 ± 1.1 µM
ALK-negative U937 cells
  IC50: 21 µM
[3]
  IC50: 25 ± 10 µM
[4]
  IC50: 6.5 µM

## O=C(CSc1ccccn1)c1ccc2[nH]c3ncccc3c2c1 [R264]
Recombinant ALK kinase; [6]
  IC50: 13 ± 0.58 µM
[1]
  IC50: 24 µM
[2]
  GI50: 13 µM
[3]
  IC50: 19 µM
[4]
  IC50: 49 ± 1.1 µM
Recombinant Ret protein
  IC50: 24 ± 6.1 µM
[5]
  GI50: 23 µM

## COc1cccc(Nc2cnc3[nH]c4ccc(CCc5ccccc5)cc4c3c2)c1 [R352, N-(3-methoxyphenyl)-6-(2′-phenylethyl)-9H-pyrido[2,3-b]indol-3-amine]
Recombinant ALK kinase; repeated determinations, 1st, read-out: ALK IC50, 1st determination
  IC50: 19 µM
Recombinant ALK kinase; repeated determinations, 2nd or 'then'
  ALK IC50, 2nd / subsequent determination: inactive
[1]
  IC50: 8.6 µM
[2]
  GI50: 5.2 µM
ALK-negative U937 cells
  IC50: 13 µM
[3]
  IC50: 5.3 µM

## c1ccc(CCc2ccc3[nH]c4ncc(-c5ccc6c(c5)OCO6)cc4c3c2)cc1 [R354, 3-(benzo[d][1,3]dioxol-5-yl)-6-(2′-phenylethyl)-9H-pyrido[2,3-b]indole]
Recombinant ALK kinase; [6]
  IC50: 13 µM
[1]
  IC50: 25 µM
[2]
  GI50: 22 µM
ALK-negative U937 cells
  IC50: 27 µM
[3]
  IC50: 27 µM

## CC(=O)c1ccc2[nH]c3ncc(Cl)cc3c2c1 [R253, 6-acetyl-3-chloro-9H-pyrido[2,3-b]indole]
[2]
  GI50: > 20 µM
[3]
  IC50: > 20 µM
[5]
  GI50: > 20 µM

## CN1CCN(CCOc2ccc(-c3ccc4[nH]c5ncc(Cl)cc5c4c3)cc2)CC1 [R347, 3-chloro-6-(4-(2-(4-methylpiperazin-1-yl)ethoxy)phenyl)-9H-pyrido[2,3-b]indole]
Recombinant ALK kinase; [6]
  IC50: 7.8 ± 0.9 µM
[1]
  IC50: 2.6 µM
[2]
  GI50: 2.5 µM
ALK-negative U937 cells
  IC50: 4.6 µM
[3]
  IC50: 2.4 µM

## O=[N+]([O-])/C=C/c1ccc2[nH]c3ncc(Cl)cc3c2c1 [R266, 3-chloro-6-(2′-nitrovinyl)-9H-pyrido[2,3-b]indole]
Recombinant ALK kinase; [6]
  IC50: 3.3 ± 0.4 µM
[1]
  IC50: 0.81 µM
[2]
  GI50: 3.4 µM
[3]
  IC50: 3.4 µM
[4]
  IC50: 9.8 ± 0.67 µM
Recombinant Ret protein
  IC50: 4.6 ± 0.39 µM
[5]
  GI50: 2 µM
